What was measured:
Lck (p56^lck) = target: T1, Lck (p56^lck) (Homo sapiens, UniProt P06239); assay: SRC-Inhibitor-Assay (time-resolved fluorescence kinase assay), Lck; assay type: biochemical; conditions: ATP 5 μM, peptide 10 μM, enzyme 2.5 U/ml, pH 7.3
T1 construct: purchased UBI, Upstate Biotech, Inc
Excerpt: (§1) The activity of the compounds according to this invention as inhibitors for the src-family tyrosine kinases was shown by using the following assay.
(§2) ATP, Tween™ 20, 4-(2-hydroxyethyl)-1-piperazineethanesulfonic acid (HEPES) were purchased from Roche Molecular Biochemicals, MgCl2 and MnCl2 were purchased from Merck Eurolab, Tris(2-carboxyethyl)phosphine hydrochloride (TCEP) was purchased from Pierce, 384 Well low volume fluorescence plates was purchased from Falcon.
(§3) At first the enzyme is pre-incubated for 15 min. at 15° C. in aqueous solution with corresponding amounts of inhibitors according to this invention. Then the phosphorylation reaction is started by adding a reaction mixture, containing ATP, Peptide and PT66, and subsequent shaking. The proceeding of this reaction is immediately monitored using time resolved fluorescence spectroscopy in a suitable well plate reader.
(§4) The IC50-values can be obtained from the reaction rates by using a non-linear curve fit (XLfit software (ID Business Solution Ltd., Guilford, Surrey, UK))

Src (p60^c-src) = target: T2, Src (p60^c-src) (Homo sapiens, UniProt P12931); assay: SRC-Inhibitor-Assay (time-resolved fluorescence kinase assay), Src; assay type: biochemical; conditions: ATP 5 μM, peptide 10 μM, enzyme 2.5 U/ml, pH 7.3
T2 construct: purchased UBI, Upstate Biotech, Inc
T2 sequence (P12931 whole entry): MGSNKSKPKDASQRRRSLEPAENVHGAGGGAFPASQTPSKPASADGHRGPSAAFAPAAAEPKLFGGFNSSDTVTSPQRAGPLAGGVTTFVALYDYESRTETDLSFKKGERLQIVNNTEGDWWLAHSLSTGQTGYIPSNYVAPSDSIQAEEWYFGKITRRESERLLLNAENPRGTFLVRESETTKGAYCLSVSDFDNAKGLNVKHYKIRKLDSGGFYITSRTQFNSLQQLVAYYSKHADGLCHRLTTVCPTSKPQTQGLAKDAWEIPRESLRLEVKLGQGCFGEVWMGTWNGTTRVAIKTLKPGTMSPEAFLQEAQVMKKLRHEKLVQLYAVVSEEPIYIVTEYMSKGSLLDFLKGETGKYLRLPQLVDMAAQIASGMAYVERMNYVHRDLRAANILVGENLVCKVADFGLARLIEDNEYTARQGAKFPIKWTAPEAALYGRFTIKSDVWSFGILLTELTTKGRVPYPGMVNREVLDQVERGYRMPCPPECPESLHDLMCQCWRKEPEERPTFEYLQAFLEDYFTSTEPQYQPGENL
Excerpt: as §1, §2, §3, §4

T1 sequence (P06239 whole entry): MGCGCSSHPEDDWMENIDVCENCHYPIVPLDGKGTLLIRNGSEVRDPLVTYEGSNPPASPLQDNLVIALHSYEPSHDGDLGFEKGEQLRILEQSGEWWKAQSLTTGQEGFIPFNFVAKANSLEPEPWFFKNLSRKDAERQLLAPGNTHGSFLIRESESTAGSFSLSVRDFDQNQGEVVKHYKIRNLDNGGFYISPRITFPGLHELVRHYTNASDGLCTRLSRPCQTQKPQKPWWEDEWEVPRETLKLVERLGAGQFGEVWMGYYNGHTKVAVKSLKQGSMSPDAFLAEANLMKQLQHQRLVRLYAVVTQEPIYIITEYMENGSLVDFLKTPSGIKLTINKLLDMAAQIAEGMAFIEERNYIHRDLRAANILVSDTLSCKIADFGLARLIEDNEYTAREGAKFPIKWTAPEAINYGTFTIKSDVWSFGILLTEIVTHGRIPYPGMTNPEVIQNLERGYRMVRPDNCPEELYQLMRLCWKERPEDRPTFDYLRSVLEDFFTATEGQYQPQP

IC50 (Lck (p56^lck))	IC50 (Src (p60^c-src))	SMILES
100 to 9000 nM	10 to 500 nM	C=CC(C)OC(=O)Nc1cnc2[nH]c(-c3ccccc3)nc2c1 (stereo not shown) [Example 1-1, (2-Phenyl-3H-imidazo[4,5-b]pyridin-6-yl)-carbamic acid 1-methyl-allyl ester]
100 to 9000 nM	10 to 500 nM	CC(C)OC(=O)Nc1cnc2nc(-c3ccccc3)[nH]c2c1 [Example 1-2, (2-Phenyl-1H-imidazo[4,5-b]pyridin-6-yl)-carbamic acid isopropyl ester]
100 to 9000 nM	10 to 500 nM	CCC(C)OC(=O)Nc1cnc2[nH]c(-c3ccccc3)nc2c1 (stereo not shown) [Example 1-9, (2-Phenyl-3H-imidazo[4,5-b]pyridin-6-yl)-carbamic acid sec-butyl ester]
5000 to 10000 nM	228 nM	CC(OC(=O)Nc1cnc2[nH]c(-c3ccccc3)nc2c1)C(F)(F)F (stereo not shown) [Example 1-11, (2-Phenyl-3H-imidazo[4,5-b]pyridin-6-yl)-carbamic acid 2,2,2-trifluoro-1-methyl-ethyl ester]
2000 to 9000 nM	500 to 1500 nM	CC(C)(C)COC(=O)Nc1cnc2[nH]c(-c3ccccc3)nc2c1 [Example 1-12, (2-Phenyl-3H-imidazo[4,5-b]pyridin-6-yl)-carbamic acid 2,2-dimethyl-propyl ester]
100 to 9000 nM	10 to 500 nM	CC(OC(=O)Nc1cnc2[nH]c(-c3ccccc3)nc2c1)c1ccccc1 (stereo not shown) [Example 1-13, (2-Phenyl-3H-imidazo[4,5-b]pyridin-6-yl)-carbamic acid 1-phenyl-ethyl ester]
100 to 9000 nM	10 to 500 nM	CCCOC(=O)Nc1cnc2nc(-c3ccccc3)[nH]c2c1 [Example 1-14, (2-Phenyl-1H-imidazo[4,5-b]pyridin-6-yl)-carbamic acid propyl ester]
100 to 9000 nM	10 to 500 nM	C#CC(C)OC(=O)Nc1cnc2[nH]c(-c3ccccc3)nc2c1 (stereo not shown) [Example 1-15, (2-Phenyl-3H-imidazo[4,5-b]pyridin-6-yl)-carbamic acid 1-methyl-prop-2-ynyl ester]
100 to 9000 nM	10 to 500 nM	CC#CC(C)OC(=O)Nc1cnc2[nH]c(-c3ccccc3)nc2c1 (stereo not shown) [Example 1-16, (2-Phenyl-3H-imidazo[4,5-b]pyridin-6-yl)-carbamic acid 1-methyl-but-2-ynyl ester]
100 to 9000 nM	10 to 500 nM	O=C(Nc1cnc2[nH]c(-c3ccccc3)nc2c1)OC1CCC1 [Example 1-17, (2-Phenyl-3H-imidazo[4,5-b]pyridin-6-yl)-carbamic acid cyclobutyl ester]
2000 to 9000 nM	500 to 1500 nM	CC(C)C(C)OC(=O)Nc1cnc2[nH]c(-c3ccccc3)nc2c1 (stereo not shown) [Example 1-19, (2-Phenyl-3H-imidazo[4,5-b]pyridin-6-yl)-carbamic acid 1,2-dimethyl-propyl ester]
100 to 9000 nM	10 to 500 nM	C=C(C)C(C)OC(=O)Nc1cnc2[nH]c(-c3ccccc3)nc2c1 (stereo not shown) [Example 1-22, (2-Phenyl-3H-imidazo[4,5-b]pyridin-6-yl)-carbamic acid 1,2-dimethyl-allyl ester]
100 to 9000 nM	10 to 500 nM	CCN(CC)CCOc1ccc(-c2nc3cc(NC(=O)OC(C)C)cnc3[nH]2)cc1 [Example 2-1, {2-[4-(2-Diethylamino-ethoxy)-phenyl]-3H-imidazo[4,5-b]pyridin-6-yl}-carbamic acid isopropyl ester]
100 to 9000 nM	10 to 500 nM	COCCOc1ccc(-c2nc3cc(NC(=O)OC(C)C)cnc3[nH]2)cc1 [Example 2-3, {2-[4-(2-Methoxy-ethoxy)-phenyl]-3H-imidazo[4,5-b]pyridin-6-yl}-carbamic acid isopropyl ester]
1340 nM	185 nM	CC(C)OC(=O)Nc1cnc2[nH]c(-c3cccc([N+](=O)[O-])c3)nc2c1 [Example 2-4, [2-(3-Nitro-phenyl)-3H-imidazo[4,5-b]pyridin-6-yl]-carbamic acid isopropyl ester]
100 to 9000 nM	10 to 500 nM	CC(C)OC(=O)Nc1cnc2[nH]c(-c3ccc(N4CCOCC4)cc3)nc2c1 [Example 2-5, [2-(4-Morpholin-4-yl-phenyl)-3H-imidazo[4,5-b]pyridin-6-yl]-carbamic acid isopropyl ester]
100 to 9000 nM	10 to 500 nM	CC(C)OC(=O)Nc1cnc2[nH]c(-c3ccc(N4CCN(C)CC4)cc3)nc2c1 [Example 2-8, {2-[4-(4-Methyl-piperazin-1-yl)-phenyl]-3H-imidazo[4,5-b]pyridin-6-yl}-carbamic acid isopropyl ester]
100 to 9000 nM	10 to 500 nM	CC(C)OC(=O)Nc1cnc2[nH]c(-c3cccc(CCO)c3)nc2c1 [Example 2-9, {2-[3-(2-Hydroxy-ethyl)-phenyl]-3H-imidazo[4,5-b]pyridin-6-yl}-carbamic acid isopropyl ester]

IC50 (Lck (p56^lck))	IC50 (Src (p60^c-src))	SMILES
100 to 9000 nM	10 to 500 nM	Cc1cc(-c2nc3cc(NC(=O)OC(C)C)cnc3[nH]2)ccn1 [Example 3-1, [2-(2-Methyl-pyridin-4-yl)-3H-imidazo[4,5-b]pyridin-6-yl]-carbamic acid isopropyl ester]
100 to 9000 nM	10 to 500 nM	CC(C)OC(=O)Nc1cnc2[nH]c(-c3ccc([N+](=O)[O-])cc3)nc2c1 [Example 3-4, [2-(4-Nitro-phenyl)-3H-imidazo[4,5-b]pyridin-6-yl]-carbamic acid isopropyl ester]
100 to 9000 nM	10 to 500 nM	CC(C)OC(=O)Nc1cnc2[nH]c(-c3ccc(N4CCOCC4)nc3)nc2c1 [Example 3-7, [2-(6-Morpholin-4-yl-pyridin-3-yl)-3H-imidazo[4,5-b]pyridin-6-yl]-carbamic acid isopropyl ester]
100 to 9000 nM	10 to 500 nM	CC(C)OC(=O)Nc1cnc2[nH]c(-c3cccc(N)c3)nc2c1 [Example 5-1, [2-(3-Amino-phenyl)-3H-imidazo[4,5-b]pyridin-6-yl]-carbamic acid isopropyl ester]
100 to 9000 nM	10 to 500 nM	CC(C)OC(=O)Nc1cnc2[nH]c(-c3ccc(N)cc3)nc2c1 [Example 5-2, [2-(4-Amino-phenyl)-3H-imidazo[4,5-b]pyridin-6-yl]-carbamic acid isopropyl ester]
791 nM	39 nM	CC(=O)Nc1cccc(-c2nc3cc(NC(=O)OC(C)C)cnc3[nH]2)c1 [Example 6-1, [2-(3-Acetylamino-phenyl)-3H-imidazo[4,5-b]pyridin-6-yl]-carbamic acid isopropyl ester]
100 to 9000 nM	10 to 500 nM	CC(C)OC(=O)Nc1cnc2[nH]c(-c3cccc(NS(C)(=O)=O)c3)nc2c1 [Example 7-1, [2-(3-Methanesulfonylamino-phenyl)-3H-imidazo[4,5-b]pyridin-6-yl]-carbamic acid isopropyl ester]
100 to 9000 nM	10 to 500 nM	CC(C)OC(=O)Nc1cnc2[nH]c(-c3cccc([S+](C)[O-])c3)nc2c1 (stereo not shown) [Example 8-1, [2-(3-Methylsulfinyl-phenyl)-3H-imidazo[4,5-b]pyridin-6-yl]-carbamic acid isopropyl ester]
100 to 9000 nM	10 to 500 nM	CC(C)OC(=O)Nc1cnc2[nH]c(-c3cccc(S(C)(=O)=O)c3)nc2c1 [Example 8-2, [2-(3-Methylsulfonyl-phenyl)-3H-imidazo[4,5-b]pyridin-6-yl]-carbamic acid isopropyl ester]
100 to 9000 nM	10 to 500 nM	CC(C)OC(=O)Nc1cnc2[nH]c(-c3ccc([S+](C)[O-])cc3)nc2c1 (stereo not shown) [Example 8-4, [2-(4-Methanesulfinyl-phenyl)-3H-imidazo[4,5-b]pyridin-6-yl]-carbamic acid isopropyl ester]
100 to 9000 nM	10 to 500 nM	CC(C)OC(=O)Nc1cnc2[nH]c(-c3ccccc3)cc2c1 [Example 9-1, (2-Phenyl-1H-pyrrolo[2,3-b]pyridin-5-yl)-carbamic acid isopropyl ester]
100 to 9000 nM	10 to 500 nM	CCOC(=O)Nc1cnc2[nH]c(-c3ccc(OCCOC)cc3)cc2c1 [Example 9-4, {2-[4-(2-Methoxy-ethoxy)-phenyl]-1H-pyrrolo[2,3-b]pyridin-5-yl}-carbamic acid ethyl ester]
100 to 9000 nM	10 to 500 nM	C=CCOC(=O)Nc1cnc2[nH]c(-c3ccc(OCCOC)cc3)cc2c1 [Example 9-5, {2-[4-(2-Methoxy-ethoxy)-phenyl]-1H-pyrrolo[2,3-b]pyridin-5-yl}-carbamic acid allyl ester]
100 to 9000 nM	10 to 500 nM	O=C(Nc1cnc2[nH]c(-c3ccccc3)cc2c1)OCc1ccccc1 [Example 9-8, (2-Phenyl-1H-pyrrolo[2,3-b]pyridin-5-yl)-carbamic acid benzyl ester]
100 to 9000 nM	10 to 500 nM	COCCOc1ccc(-c2cc3cc(NC(=O)OC(C)C)cnc3[nH]2)cc1 [Example 9-17, {2-[4-(2-Methoxy-ethoxy)-phenyl]-1H-pyrrolo[2,3-b]pyridin-5-yl}-carbamic acid isopropyl ester]
100 to 9000 nM	10 to 500 nM	COCCOc1ccc(-c2cc3cc(NC(=O)OCC(C)C)cnc3[nH]2)cc1 [Example 9-19, {2-[4-(2-Methoxy-ethoxy)-phenyl]-1H-pyrrolo[2,3-b]pyridin-5-yl}-carbamic acid isobutyl ester]
100 to 9000 nM	10 to 500 nM	CC(=O)Nc1cccc(-c2cc3cc(NC(=O)OC(C)C)cnc3[nH]2)c1 [Example 9-20, [2-(3-Acetylamino-phenyl)-1H-pyrrolo[2,3-b]pyridin-5-yl]-carbamic acid isopropyl ester]

Source: patent US7786113B2, “Heterocyclic carbamate derivatives, their manufacture and use as pharmaceutical agents” (Hoffman-La Roche Inc., priority 2004, dated 2010)
